# Test results taken from US20050182025A1, “Amidinylphenyl compounds and their use as fungicides” (priority 2002, published 2005).
# Experiments:
# Type in all cases: in vivo
# [1] = test system: Erysiphe graminis f. sp. tritici; experiment: Test A: preventive spray on wheat seedlings, wheat powdery mildew, disease rating; settings: wheat seedlings sprayed to run-off, inoculated the following day with Erysiphe graminis f. sp. tritici, rated after 7 days at 20° C.; test concentration not given
# Procedure, shortened: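 Preventive test: Erysiphe graminis f. sp. tritici spore dust applied one day after run-off spraying of seedlings with acetone/water/surfactant suspension, 200 ppm equating to 500 g/ha. Plants held 7 days at 20 °C; ratings give % disease control versus controls, 100 full, 0 none.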
# [2] = test system: Puccinia recondita; experiment: Test B: preventive spray on wheat seedlings, wheat leaf rust, disease rating; settings: wheat seedlings sprayed to run-off, inoculated the following day with Puccinia recondita, 24 h saturated atmosphere then 6 days at 20° C.; test concentration not given
# Procedure, shortened: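 Preventive test: seedlings inoculated with Puccinia recondita one day after run-off spraying with test suspension (acetone/water, 250 ppm Trem 014; 200 ppm equals 500 g/ha). Rating after 24 h at 20° C in saturation plus 6 days in 20° C growth chamber; 0–100 scale versus controls.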
# [3] = test system: Septoria nodorum; experiment: Test C: preventive spray on wheat seedlings, Septoria glume blotch, disease rating; settings: wheat seedlings sprayed to run-off, inoculated the following day with Septoria nodorum, 48 h saturated atmosphere then 9 days at 20° C.; test concentration not given
# Procedure, shortened: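 Preventive test: one day after spraying (to run-off; 200 ppm ≈ 500 g/ha, in acetone/water with 250 ppm surfactant), seedlings received a S. nodorum spore suspension. After 48 h in saturated air and 9 days in a growth chamber, both at 20° C., % disease control versus controls was scored.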
Structure (SMILES),"Test A disease control rating (100 = 100% disease control, 0 = no disease control relative to the controls) [1]","Test B disease control rating (100 = 100% disease control, 0 = no disease control relative to the controls) [2]","Test C disease control rating (100 = 100% disease control, 0 = no disease control relative to the controls) [3]"
CC(=Nc1cc(C)c(OCCCC(C)C)cc1C)N(C)C [compound 96],0%,100%,100%
CCN(C)C=Nc1cc(Cl)c(OCCC[Si](C)(C)CC)cc1C [compound 57],100%,100%,100%
CCCCCCCCCOc1cc(C)c(N=CN(C)C)cc1C [Compound 23],97%,98%,13%
CCC(CCC(C)C)Oc1cc(C)c(N=CN(C)C)cc1C (stereo not drawn) [Compound 31],93%,100%,53%
CCCN(C)C(=S)Nc1cc(C)c(OCCC[Si](C)(C)CC)cc1C [compound 78],0%,98%,100%
CCCCN(C)C(=S)Nc1cc(C(C)C)c(OCCC[Si](C)(C)C)cc1C [compound 91],0%,26%,0%
CCN(C)C=Nc1cc(F)c(OCCC[Si](C)(C)C)cc1C [compound 59],100%,100%,100%
CCCN(C)C=Nc1cc(F)c(OCCC[Si](C)(C)C)cc1C [compound 60],100%,100%,100%
CCN(C)C(=S)Nc1cc(Cl)c(OCCCC(C)C)cc1Cl [compound 125],96%,97%,100%
CCCCCCCCOc1cc(C)c(N=CN(C)C)cc1C [Compound 22],98%,100%,88%
CCN(C)C(=Nc1cc(Cl)c(OCCC[Si](C)(C)C)cc1C)C(=O)OC [compound 129],100%,100%,67%
CCCCC(CCCC)Sc1cc(C)c(N=CN(C)C)cc1C [compound 155],0%,23%,95%
Cc1cc(NC(=O)N(C)CC(C)(C)C)c(C)cc1N=CN(C)C [compound 193],0%,23%,0%
Cc1cc(OCCCCC(C)C)c(C)cc1N=CN(C)C [Compound 48],99%,100%,96%
Cc1cc(SC(CCC(C)C)CCC(C)C)c(C)cc1N=CN(C)C [compound 159],94%,100%,47%
CCCN(C)C=Nc1cc(C(C)C)c(OCCC[Si](C)(C)C)cc1C [compound 75],100%,100%,100%
CCN(C)C=Nc1cc(Cl)c(OC(C)CCC(C)C)cc1C (stereo not drawn) [compound 198],100%,100%,100%
CCN(CC)C(=S)Nc1cc(Cl)c(OCCCC(C)(C)C)cc1Cl [compound 188],100%,79%,90%
CCCCN(C)C=Nc1cc(C(C)C)c(OCCC[Si](C)(C)C)cc1C [compound 73],99%,61%,66%
CCCCCCOc1cc(C)c(N=CN(C)C)cc1C [Compound 20],96%,100%,99%
CC(=Nc1cc(Cl)c(OCCC[Si](C)(C)C)cc1C)N(C)C [compound 173],32%,90%,99%
"Cc1cc(OCCC[Si](C)(C)C)c(C)cc1N=CN(C)C [Compound 26, N′-[2,5-Dimethyl-4-[3-(trimethylsilyl)propoxy]phenyl]-N,N-dimethylmethanimidamide]",98%,100%,100%
CCCN(C)C(=S)Nc1cc(C(C)C)c(OCCC[Si](C)(C)C)cc1C [compound 93],99%,100%,99%
Cc1cc(OCCC[Si](C)(C)C)c(Cl)cc1N=CN(C)C [compound 172],100%,100%,100%
"CC(C)=CCOc1cc(C)c(N=CN(C)C)cc1C [Compound 1, N′-[2,5-Dimethyl-4-[(3-methyl-2-butenyl)-oxy]phenyl]-N,N-dimethylmethanimidamide]",32%,100%,92%
CCCC(CCC(C)C)Oc1cc(C)c(N=CN(C)C)cc1C (stereo not drawn) [Compound 33],95%,100%,0%
Cc1cc(NC(=S)N(C)C)c(C)c(Cl)c1OCCCC(C)C [compound 136],95%,91%,84%
